Biological target: human SOS1 (loading of human K-Ras^G12C-GDP with fluorescent GTP-analog) (Homo sapiens, UniProt Q07889)
Assay: Biochemical assay 3: K-Ras^G12C activation assay by hSOS1 (HTRF)
Conditions: read-out: Assay 3 (KRAS-Activation by SOS no GTP) activity expressed as % inhibition at 20 μM; no GTP; at 20 μM
Description: Biochemical assay 3: K-Ras^G12C Activation Assay by hSOS1
K-Ras is a small GTPase that can bind GDP and GTP. The guanine nucleotide exchange factor SOS catalyzes the activation of K-Ras by promoting the exchange of GDP to GTP. SOS binds to K-Ras-GDP thereby opening the GDP-binding pocket to facilitate GDP release. Rebinding of excess nucleotide leads to dissociation of the K-Ras-SOS intermediate complex leaving K-Ras loaded with the nucleotide.
This assay quantifies human SOS1-mediated loading of human K-Ras^G12C-GDP with a fluorescent GTP-analog. Detection of successful loading is achieved by measuring homogenous time-resolved fluorescence resonance energy transfer (HTRF) from antiGST-Terbium (FRET donor) bound to GST-K-RasG12C to the loaded fluorescent GTP analog (FRET-acceptor).
The fluorescent GTP-analog EDA-GTP-Dy647P1 (2′/3′-O-(2-Aminoethyl-carbamoyl)-guanosine-5′-triphosphate labelled with Dy647P1 (Dyomics GmbH, Germany)) was synthesized by Jena Biosciences GmbH (Germany) and supplied as a 1 mM aqueous solution.
The assay buffer contained 10 mM HEPES pH 7.4 (Applichem), 150 mM NaCl (Sigma), 5 mM MgCl2 (Sigma), 1 mM DTT (Thermofisher), 0.05% BSA Fraction V, pH 7.0, (ICN Biomedicals), 0.0025% (v/v) Igepal (Sigma).
Concentrations of protein batches used were optimized to be within the linear range of the HTRF signal. A Ras working solution was prepared in assay buffer containing typically 100 nM GST-hK-RasG12C and 2 nM antiGST-Tb (Cisbio, France). A hSOS1 working solution was prepared in assay buffer containing typically 20 nM hSOS1 and 200 nM EDA-GTP-Dy647P1. An inhibitor control solution was prepared in assay buffer containing 200 nM EDA-GTP-Dy647P1 without hSOS1.
Fifty nl of a 100-fold concentrated solution of the test compound in DMSO were transferred into a black microtiter test plate (384 or 1536, Greiner Bio-One, Germany). For this, either a Hummingbird liquid handler (Digilab, MA, USA) or an Echo acoustic system (Labcyte, CA, USA) was used.
All steps of the assay were performed at 20° C. A volume of 2.5 μl of the Ras working solution was added to all wells of the test plate using a Multidrop dispenser (Thermo Labsystems). After 10 min preincubation, 2.5 μl of the hSOS1 working solution were added to all wells except for those wells at the side of the test plate that were subsequently filled with 2.5 μl of the inhibitor control solution. After 30 min incubation the fluorescence was measured with a Pherastar (BMG, Germany) using the HTRF module (excitation 337 nm, emission 1: 620 nm, emission 2: 665 nm).
IC50 values were calculated by 4-Parameter fitting using a commercial software package (Genedata Screener, Switzerland).

Row | SMILES | inhibition at 20 µM
1 | COc1cc2nc(C)nc(N[C@@H](C)c3ccc(-c4cncnc4)s3)c2cc1OC (stereo in doubt) [Example 42, 6,7-dimethoxy-2-methyl-N-{1-[5-(pyrimidin-5-yl)thiophen-2-yl]ethyl}quinazolin-4-amine] | 48%
2 | COCc1ccccc1-c1ccc([C@H](C)Nc2nc(C)nc3cc(OC)c(OC)cc23)s1 (stereo in doubt) [Example 50, 6,7-dimethoxy-N-[1-{5-[2-(methoxymethyl)phenyl]thiophen-2-yl}ethyl]-2-methylquinazolin-4-amine] | 23%
3 | COc1cc2nc(C)nc(N[C@@H](C)c3ccc(-c4cccc(C(=O)N(C)C)c4)s3)c2cc1OC (stereo in doubt) [Example 51, 3-(5-{1-[(6,7-dimethoxy-2-methylquinazolin-4-yl)amino]ethyl}thiophen-2-yl)-N,N-dimethylbenzamide] | 52%
4 | COc1cc2nc(C)nc(N[C@@H](C)c3ccc(-c4ccc(CO)s4)s3)c2cc1OC (stereo in doubt) [Example 52, (5′-{1-[(6,7-dimethoxy-2-methylquinazolin-4-yl)amino]ethyl}-2,2′-bithiophen-5-yl)methanol] | 43%
5 | COc1cc2nc(C)nc(N[C@@H](C)c3ccc(-c4ccc(-c5nnc(C)o5)cc4)s3)c2cc1OC (stereo in doubt) [Example 128, 6,7-dimethoxy-2-methyl-N-[1-{5-[4-(5-methyl-1,3,4-oxadiazol-2-yl)phenyl]thiophen-2-yl}ethyl]quinazolin-4-amine] | 16%
6 | COc1cc2nc(C)nc(N[C@@H](C)c3ccc(-c4ccc(CNC(C)=O)cc4)s3)c2cc1OC (stereo in doubt) [Example 138, N-[4-(5-{1-[(6,7-dimethoxy-2-methylquinazolin-4-yl)amino]ethyl}thiophen-2-yl)benzyl)acetamide] | 40%
7 | COc1cc2nc(C)nc(N[C@@H](C)c3ccc(-c4cccc(CNS(C)(=O)=O)c4)s3)c2cc1OC (stereo in doubt) [Example 139, N-[3-(5-{1-[(6,7-dimethoxy-2-methylquinazolin-4-yl)amino]ethyl}thiophen-2-yl)benzyl]methanesulfonamide] | 41%
8 | COc1cc2nc(C)nc(N[C@@H](C)c3ccc(-c4ccc(CNS(C)(=O)=O)cc4)s3)c2cc1OC (stereo in doubt) [Example 140, N-[4-(5-{1-[(6,7-dimethoxy-2-methylquinazolin-4-yl)amino]ethyl}thiophen-2-yl)benzyl]methanesulfonamide] | 33%
9 | COc1cc2nc(C)nc(N[C@@H](C)c3ccc(-c4ccc(S(C)(=O)=O)cc4)s3)c2cc1OC (stereo in doubt) [Example 149, 6,7-dimethoxy-2-methyl-N-[1-{5-[4-(methylsulfonyl)phenyl]thiophen-2-yl}ethyl]quinazolin-4-amine] | 17%
10 | COc1cc2nc(C)nc(N[C@@H](C)c3ccc(-c4cccc(NS(C)(=O)=O)c4)s3)c2cc1OC (stereo in doubt) [Example 165, N-[3-(5-{1-[(6,7-dimethoxy-2-methylquinazolin-4-yl)amino]ethyl}thiophen-2-yl)phenyl]methanesulfonamide] | 32%
11 | COc1cc2nc(C)nc(N[C@@H](C)c3ccc(-c4cccc(S(C)(=O)=O)c4)s3)c2cc1OC (stereo in doubt) [Example 173, 6,7-dimethoxy-2-methyl-N-[1-{5-[3-(methylsulfonyl)phenyl]thiophen-2-yl}ethyl]quinazolin-4-amine] | 48%
12 | COc1cc2nc(C)nc(N[C@@H](C)c3ccc(-c4ccc(C(=O)N(C)C)cc4)s3)c2cc1OC (stereo in doubt) [Example 176, 4-(5-{1-[(6,7-dimethoxy-2-methylquinazolin-4-yl)amino]ethyl}thiophen-2-yl)-N,N-dimethylbenzamide] | 42%

Reference: patent publication US20240083857A1, “2-Methyl-Quinazolines” (Bayer Pharma Aktiengesellschaft, priority 2017, published 2024)
